# In patent US4588726A, “1-cyclopropyl-6-fluoro-1 ,4-dihydro-4-oxo-7-(3-oxo-1-piperazinyl)-3-quinolinecarboxylic acid antibacterial agents” (Bayer Aktiengesellschaft, priority 1984, dated 1986):
# Assays:
# Staph. 1756 = assay: MIC of the compound of Example 1 compared with norfloxacin, Staph. 1756; type: cell-based; conditions: Staphylococcus
# From the text: (§1) Tables 1 and 2 below show examples of the MIC values of the compound of Example 1 compared with norfloxacin.
# Staph.aur. FK 422 = assay: MIC of the compound of Example 1 compared with norfloxacin, Staph.aur. FK 422; type: cell-based; conditions: Staphylococcus aureus
# From the text: as §1
# Staph. 133 = assay: MIC of the compound of Example 1 compared with norfloxacin, Staph. 133; type: cell-based; conditions: Staphylococcus
# From the text: as §1
# E. coli C14 = assay: Microtitre assay/urine, MIC, E. coli C14; type: cell-based; conditions: Escherichia coli
# From the text: as §1
# (§2) Microtitre assay/urine (80% pooled human urine,
# (§3) 20% isosensitest medium)
# Staph. 25151 = assay: Microtitre assay/urine, MIC, Staph. 25151; type: cell-based; conditions: Staphylococcus
# From the text: as §1, §2, §3
# [1] = system: Gram-positive and Gram-negative organisms; conditions: J. Med. Chem. 23, 1358 (1980); cited from earlier work
# [2] = C14, pH 7.1, E. coli C14, head prints only pH 7.1
# [3] = C14, pH 7.1, E. coli C14, urine pH 7.1, 80% pooled human urine, 20% isosensitest medium
# [4] = pH 7.1, Staph. 25151, head prints only pH 7.1
# [5] = pH 7.1, Staph. 25151, urine pH 7.1, 80% pooled human urine, 20% isosensitest medium
Structure (SMILES),MIC (Staph. 1756) [µg/mL],MIC (Staph.aur. FK 422) [µg/mL],MIC (Staph. 133) [µg/mL],MIC (E. coli C14; [2]) [µg/mL],MIC (E. coli C14; [3]) [µg/mL],MIC (Staph. 25151; [4]) [µg/mL],MIC (Staph. 25151; [5]) [µg/mL],antibacterial properties [1]
"O=C1CN(c2cc3c(cc2F)c(=O)c(C(=O)O)cn3C2CC2)CCN1 [Example 1, 1-cyclopropyl-6-fluoro-1,4-dihydro-4-oxo-7-(3-oxo-1-piperazinyl)-3-quinolinecarboxylic acid]",0.25,0.5,0.5,0.25,0.25,0.5,0.25,–
"CCn1cc(C(=O)O)c(=O)c2cc(F)c(N3CCNCC3)cc21 [Norfloxacin, 1-ethyl-6-fluoro-1,4-dihydro-4-oxo-7-(1-piperazinyl)-3-quinolinecarboxylicacid]",2,2,1,0.5,4,4,4,has antibacterial properties
